Source: patent US6608032B1, “Medicinal compositions” (Takara Shuzo Co., Ltd., priority 1999, dated 2003)

Legend:
[1] = tested on: celiac macrophages; assay: TPA-induced IL-6 production in celiac macrophages; format: cell-based, mouse; conditions: 5 μl of 20, 10 or 5 mM solution per 500 μl; 14 hours; concentration dependent; FIG. 16
Method: 4 ml of RPMI 1640 medium (Bio Whittaker, 12-702F) containing 10% fetal calf serum was intraperitoneally injected into ddy mouse (Japan SLC, female, 7 weeks old) The medium was removed after extensive massage to obtain celiac cells. The celiac cells were suspended in RPMI 1640 medium containing 10% fetal calf serum at a concentration of 10^6 cells/ml. 500 μl of the suspension was added to each well of a 48-well microtiter plate and the plate was incubated at 37° C. for 2 hours in the presence of 5% CO2. Adhesive cells obtained by removing the culture supernatant were used as celiac macrophaaes. 500 μl of fresh Dulbecco's modified Eagle's medium (Bio Whittaker, 12-917F) without Phenol Red containing 10% fetal calf serum and 2 mM L-glutamine was added to each well. 5 μl of 20, 10 or 5 mM aqueous solution of agarobiose obtained in Referential Example 1 and 5 μl of 10 μg/ml aqueous solution of 12-O-tetradecanoylphorbol 13-acetate (TPA, Gibco, 13139-019) were added to the well. The plate was incubated for additional 14 hours, and the culture supernatant was then collected. The content of interleukin 6 (IL-6) in the culture supernatant was measured using enzyme immuno sandwich assay (ELISA; Matched antibody Pair Sample Pak-mouse IL6, Endogen). As a control, a group to which the agarobiose aqueous solution or the TPA aqueous solution was not added was provided. […]

[2] = tested on: RAW264.7 cells; assay: LPS-induced IL-10 production in RAW264.7 cells; format: cell-based; conditions: 5 μl of 10 mM solution per 0.5 ml, 5 hours before LPS; 18 hours; FIG. 18
Method: RAW264.7 cells (ATCC TIB 71) were suspended in Dulbecco's modified Eagle's medium (Bio Whittaker, 12-604F) containing 10% fetal calf serum (Gibco) at a concentration of 3×10^5 cells/ml. 0.5 ml of the suspension was added to each well of a 48-well microtiter plate and the plate was incubated at 37° C. overnight in the presence of 5% CO2. 5 μl of a solution containing agarobiose or agarohexaose in Referential Example 1 at a concentration of 10 mM in water was added to the well. After incubation for additional 5 hours, 5 μl of a solution of lipopolysaccharide (LPS, Sigma, L-2012) at a concentration of 100 μg/ml in water was added the well. After incubation for 18 hours, a culture supernatant was collected. The content of interleukin 10 (IL-10) in the culture supernatant was measured using enzyme immuno sandwich assay. As a control, a group to which the sample or the LPS aqueous solution was not added was provided. All of the measurements were carried out in duplicate.

[3] = tested on: human FGF-β; assay: FGF-β production from DSEK cells (ELISA); format: cell-based; conditions: DSEK culture supernatant
Method: 150 μl of a culture supernatant was collected from a well containing a culture of DSEK cells over time at intervals of 24 hours. The effects of agarobiose on the production (expression) of cytokines (human TGF-β, human FGF-β and human IL-10) from the cell were determined using ELISA kits specific for the respective cytokines (from Intergen for human FGF-β and human IL-10; and from Promega for human TGF-β).

[4] = tested on: RAW264.7 cells; assay: Prostaglandin E2 generation by crude enzyme fraction of RAW264.7 cells pre-treated with sample and LPS; format: cell-based; conditions: cells treated with 200 μl of 10 mM sample per 20 ml, 5 hours before LPS
Method: (1) RAW264.7 cells (ATCC TIB 71) were suspended in Dulbecco's modified Eagle's medium (Bio Whittaker, 12-604F) containing 10% fetal calf serum (Gibco) at a concentration of 1×10^6 cells/ml. 20 ml of the suspension was added to a 10-cm Petri dish and the dish was incubated at 37° C. overnight in the presence of 5% CO2. 200 μl of a solution containing agarohexaose or DGE (obtained in Example 15-(2) below) at a concentration of 10 mM in water was added to the dish. The dish was incubated for 5 hours. 200 μl of a solution containing lipopolysaccharide (LPS, Sigma, L-2012) at a concentration of 100 μg/ml in water was added thereto. The dish was incubated for additional 12 hours. As a control, 200 μL of water was added in place of the sample. The cells were recovered by detaching the cells from the plate using a scraper and suspended in 0.1 M tris buffer (pH 8.0) containing 1 μg/ml pepstatin A (Sigma, P5318), 1 μg/ml leupeptin (Sigma, L2884) and 1 mM phenylmethylsulfonyl fluoride (Nacalai Tesque, 273-27). The cell membrane was destroyed by sonication. A supernatant collected by centrifugation was used as a crude enzyme fraction. The content of protein in the crude enzyme fraction was determined using Micro BCA Protein Assay Reagent (a product of Pierce sold by Takara Shuzo, P7411). 2.5 μL of 200 mM aqueous solution of glutathione (Nacalai Tesque, 170-50), 2.5 μL of a suspension containing L-adrenaline (Nacalai Tesque, 010-04) at a concentration of 200 mM in water, and 1 μL of 3 mM solution of arachidonic acid (Cayman, 90010.1) or 1 μL of 100 μg/mL solution of prostaglandin H2 (Cayman, 17020) were added to 100 μL of the sample from the crude enzyme fraction prepared as described above. The mixture was reacted at 37° C. for 30 minutes. The reaction was stopped by heating at 100° C. for 2 minutes. The content of prostaglandin E2 in the reaction mixture was measured using Prostaglandin E2 ELISA Kit (Neogen, 404110).

Q: What does the source list for `OC[C@H]1O[C@@H](O[C@H]2[C@H]3OC[C@@H]2OC(O)[C@H]3O)[C@H](O)[C@@H](O)[C@H]1O` (mixture of isomers) [Agarobiose, agarobiose]?
A: TPA-induced IL-6 production [1]: suppression of TPA-induced IL-6 production; LPS-induced IL-10 production [2]: inhibition of LPS-induced IL-10 production; production of human FGF-β [3]: activities of inhibiting the production

Q: `OCC1OC(OC2C3COC2C(O)C(OC2C(O)C(CO)OC(OC4C5COC4C(O)C(OC4C(O)C(CO)OC(OC6C7COC6C(O)C(O)O7)C4O)O5)C2O)O3)C(O)C(O)C1O` (stereo not drawn) [Agarohexaose, agarohexaose] was tested. Which “production of prostaglandin E2, arachidonic acid added” value ([4]; FIG. 13) did it give?
A: suppressed as compared with the control

Q: What about the “production of prostaglandin E2, prostaglandin H2 added” value ([4]; FIG. 14) of the same molecule?
A: suppressed as compared with the control

Q: What about the “LPS-induced IL-10 production” value [2] of the same molecule?
A: inhibition of LPS-induced IL-10 production
